{"source": "paper doi:10.1101/2023.11.24.568596v1", "about": "(biorxiv, 2023)", "conditions_in_all_cases": "binder", "key": {"[1]": {"molecular_target": "T1, PHKG2 (Homo sapiens, UniProt P15735)", "T1 sequence (P15735 1-406)": "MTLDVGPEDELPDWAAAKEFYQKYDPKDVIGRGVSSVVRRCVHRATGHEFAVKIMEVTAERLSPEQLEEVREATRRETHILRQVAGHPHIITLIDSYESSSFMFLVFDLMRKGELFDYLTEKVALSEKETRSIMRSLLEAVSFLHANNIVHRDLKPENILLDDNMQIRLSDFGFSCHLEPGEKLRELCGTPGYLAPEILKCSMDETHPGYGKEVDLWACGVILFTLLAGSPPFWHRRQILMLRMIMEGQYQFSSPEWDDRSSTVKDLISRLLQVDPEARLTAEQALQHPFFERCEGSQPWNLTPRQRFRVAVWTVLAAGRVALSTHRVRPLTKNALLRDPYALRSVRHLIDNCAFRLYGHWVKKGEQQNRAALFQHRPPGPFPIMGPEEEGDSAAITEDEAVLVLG"}, "[2]": {"molecular_target": "T2, BMPR2 (Homo sapiens, UniProt Q13873)", "T2 sequence (Q13873 1-1038)": "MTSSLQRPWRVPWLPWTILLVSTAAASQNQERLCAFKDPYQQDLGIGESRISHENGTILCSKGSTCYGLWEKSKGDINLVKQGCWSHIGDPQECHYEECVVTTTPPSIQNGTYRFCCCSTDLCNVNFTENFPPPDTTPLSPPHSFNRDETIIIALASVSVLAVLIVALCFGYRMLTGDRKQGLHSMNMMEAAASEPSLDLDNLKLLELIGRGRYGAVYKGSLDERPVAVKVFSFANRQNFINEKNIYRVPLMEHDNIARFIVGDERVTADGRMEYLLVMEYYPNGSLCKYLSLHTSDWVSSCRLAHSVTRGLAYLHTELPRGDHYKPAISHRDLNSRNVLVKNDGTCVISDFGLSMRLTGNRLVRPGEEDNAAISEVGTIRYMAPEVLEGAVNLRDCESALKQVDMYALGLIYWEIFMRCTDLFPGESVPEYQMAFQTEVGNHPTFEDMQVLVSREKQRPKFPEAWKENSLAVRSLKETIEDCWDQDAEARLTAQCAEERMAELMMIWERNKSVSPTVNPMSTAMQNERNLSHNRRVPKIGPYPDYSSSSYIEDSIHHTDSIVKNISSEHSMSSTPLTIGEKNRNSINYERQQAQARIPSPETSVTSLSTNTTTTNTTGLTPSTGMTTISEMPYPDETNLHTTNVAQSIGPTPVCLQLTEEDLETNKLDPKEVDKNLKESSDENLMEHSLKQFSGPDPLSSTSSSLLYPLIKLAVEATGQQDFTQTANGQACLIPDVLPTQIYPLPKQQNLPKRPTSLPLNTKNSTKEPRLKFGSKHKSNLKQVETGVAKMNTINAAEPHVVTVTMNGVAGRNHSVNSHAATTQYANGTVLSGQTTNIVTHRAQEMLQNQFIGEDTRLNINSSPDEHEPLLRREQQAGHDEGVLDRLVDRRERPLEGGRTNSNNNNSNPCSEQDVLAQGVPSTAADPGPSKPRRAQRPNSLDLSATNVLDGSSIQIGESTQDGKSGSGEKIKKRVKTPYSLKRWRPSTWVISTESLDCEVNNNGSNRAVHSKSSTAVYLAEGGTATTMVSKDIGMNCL"}, "[3]": {"molecular_target": "LOK (Homo sapiens, UniProt O94804)", "sequence (O94804 whole entry)": "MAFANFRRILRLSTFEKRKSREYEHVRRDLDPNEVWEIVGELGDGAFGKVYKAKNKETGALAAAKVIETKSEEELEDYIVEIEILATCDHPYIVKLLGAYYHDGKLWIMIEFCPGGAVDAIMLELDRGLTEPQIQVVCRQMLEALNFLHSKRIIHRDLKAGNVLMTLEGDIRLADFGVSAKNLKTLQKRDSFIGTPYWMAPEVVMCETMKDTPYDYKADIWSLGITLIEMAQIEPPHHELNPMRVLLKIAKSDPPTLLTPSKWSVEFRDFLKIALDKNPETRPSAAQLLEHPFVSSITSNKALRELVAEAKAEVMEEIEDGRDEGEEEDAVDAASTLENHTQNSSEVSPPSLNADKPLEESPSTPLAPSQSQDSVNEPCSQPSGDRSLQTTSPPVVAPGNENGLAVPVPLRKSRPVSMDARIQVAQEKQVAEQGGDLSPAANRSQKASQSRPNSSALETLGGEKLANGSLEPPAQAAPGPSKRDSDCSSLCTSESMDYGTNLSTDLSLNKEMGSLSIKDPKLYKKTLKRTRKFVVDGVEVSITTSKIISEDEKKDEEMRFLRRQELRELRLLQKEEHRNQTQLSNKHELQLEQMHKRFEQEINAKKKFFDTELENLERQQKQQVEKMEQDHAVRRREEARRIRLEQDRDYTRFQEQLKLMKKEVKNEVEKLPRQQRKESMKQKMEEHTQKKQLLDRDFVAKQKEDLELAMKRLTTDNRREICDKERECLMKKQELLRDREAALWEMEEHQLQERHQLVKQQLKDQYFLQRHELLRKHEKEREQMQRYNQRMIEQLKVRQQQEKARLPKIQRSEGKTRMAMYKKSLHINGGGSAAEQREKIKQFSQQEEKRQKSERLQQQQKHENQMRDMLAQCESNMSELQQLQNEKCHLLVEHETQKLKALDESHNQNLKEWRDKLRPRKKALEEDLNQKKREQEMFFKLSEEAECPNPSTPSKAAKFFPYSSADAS"}, "[4]": {"molecular_target": "T3, GAK (Homo sapiens, UniProt O14976)", "T3 sequence (O14976 1-1311)": "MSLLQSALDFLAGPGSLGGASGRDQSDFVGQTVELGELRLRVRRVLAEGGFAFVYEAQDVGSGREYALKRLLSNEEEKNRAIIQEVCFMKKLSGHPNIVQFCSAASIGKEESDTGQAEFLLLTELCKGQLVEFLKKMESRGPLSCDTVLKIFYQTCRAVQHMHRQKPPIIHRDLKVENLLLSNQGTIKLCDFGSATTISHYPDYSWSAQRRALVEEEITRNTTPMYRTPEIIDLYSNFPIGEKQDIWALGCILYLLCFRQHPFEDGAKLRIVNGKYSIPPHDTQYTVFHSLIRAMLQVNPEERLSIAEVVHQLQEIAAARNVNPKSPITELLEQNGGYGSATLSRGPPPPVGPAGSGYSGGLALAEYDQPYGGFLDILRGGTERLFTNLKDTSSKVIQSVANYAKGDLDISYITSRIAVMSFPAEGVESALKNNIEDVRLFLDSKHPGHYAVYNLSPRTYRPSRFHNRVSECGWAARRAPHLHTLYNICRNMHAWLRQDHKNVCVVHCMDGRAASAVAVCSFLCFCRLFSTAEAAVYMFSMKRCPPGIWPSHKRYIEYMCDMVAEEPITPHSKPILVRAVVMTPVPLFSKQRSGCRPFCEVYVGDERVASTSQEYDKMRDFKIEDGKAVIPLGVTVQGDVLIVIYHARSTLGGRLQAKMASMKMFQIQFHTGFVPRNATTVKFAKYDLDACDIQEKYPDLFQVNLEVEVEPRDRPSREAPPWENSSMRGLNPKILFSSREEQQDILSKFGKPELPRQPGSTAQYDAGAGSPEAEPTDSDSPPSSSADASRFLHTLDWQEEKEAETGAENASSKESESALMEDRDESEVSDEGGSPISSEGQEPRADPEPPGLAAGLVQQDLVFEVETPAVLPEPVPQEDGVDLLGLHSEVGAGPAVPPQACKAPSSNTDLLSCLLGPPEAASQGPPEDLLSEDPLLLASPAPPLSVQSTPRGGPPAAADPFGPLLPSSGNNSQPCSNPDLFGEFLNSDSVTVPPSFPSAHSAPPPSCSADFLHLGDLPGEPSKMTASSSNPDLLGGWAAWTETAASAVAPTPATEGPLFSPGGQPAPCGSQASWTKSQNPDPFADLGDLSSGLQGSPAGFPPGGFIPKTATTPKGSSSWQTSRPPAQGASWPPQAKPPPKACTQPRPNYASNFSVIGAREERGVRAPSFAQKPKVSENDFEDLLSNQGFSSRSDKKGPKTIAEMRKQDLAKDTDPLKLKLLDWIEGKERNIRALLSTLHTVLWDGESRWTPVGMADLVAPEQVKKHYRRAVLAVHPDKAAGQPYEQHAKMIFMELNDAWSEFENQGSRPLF"}}, "data": [{"smiles": "CNc1ncc2cc(-c3ccc(-c4cccc(C)n4)cc3Cl)c(=O)n(CCCCN)c2n1", "note": "[compound 20, MRLW5]", "values": [{"measurement": "ΔTm MRLW5 (20)", "setting": "[1]", "result": 1.8, "unit": "°C"}, {"measurement": "ΔTm MRLW5 (20)", "setting": "[2]", "result": -0.1, "unit": "°C"}, {"measurement": "ΔTm MRLW5 (20)", "setting": "[3]", "result": 12.5, "unit": "°C"}, {"measurement": "ΔTm MRLW5 (20)", "setting": "[4]", "result": 7.7, "unit": "°C"}]}, {"smiles": "CNc1ncc2cc(-c3ccc(-c4cccc(C)n4)cc3Cl)c(=O)n(CCC3CCNCC3)c2n1", "note": "[compound 22, 6-(2-Chloro-4-(6-methylpyridin-2-yl)phenyl)-2-(methylamino)-8-(2-(piperidin-4-yl)ethyl)pyrido[2,3-d]pyrimidin-7(8H)-one]", "values": [{"measurement": "ΔTm 22", "setting": "[1]", "result": 1.4, "unit": "°C"}, {"measurement": "ΔTm 22", "setting": "[2]", "result": -0.3, "unit": "°C"}, {"measurement": "ΔTm 22", "setting": "[3]", "result": 11.4, "unit": "°C"}, {"measurement": "ΔTm 22", "setting": "[4]", "result": 9.7, "unit": "°C"}]}, {"smiles": "CNc1ncc2cc(-c3ccc(-c4cccc(C)n4)cc3Cl)c(=O)n(C[C@H]3CC[C@H](N)CC3)c2n1", "note": "[compound 23, 23]", "values": [{"measurement": "ΔTm 23", "setting": "[1]", "result": 2.4, "unit": "°C"}, {"measurement": "ΔTm 23", "setting": "[2]", "result": -0.7, "unit": "°C"}, {"measurement": "ΔTm 23", "setting": "[3]", "result": 13.0, "unit": "°C"}, {"measurement": "ΔTm 23", "setting": "[4]", "result": 9.3, "unit": "°C"}]}, {"smiles": "Cc1cccc(-c2ccc(-c3cc4cnc(NC(CO)CO)nc4n(CCCCN)c3=O)c(Cl)c2)n1", "note": "[compound 24, 8-(4-Aminobutyl)-6-(2-chloro-4-(6-methylpyridin-2-yl)phenyl)-2-((1,3-dihydroxypropan-2-yl)amino)pyrido[2,3-d]pyrimidin-7(8H)-one]", "values": [{"measurement": "ΔTm MR24 (24)", "setting": "[1]", "result": 1.0, "unit": "°C"}, {"measurement": "ΔTm MR24 (24)", "setting": "[2]", "result": -0.1, "unit": "°C"}, {"measurement": "ΔTm MR24 (24)", "setting": "[3]", "result": -0.6, "unit": "°C"}, {"measurement": "ΔTm MR24 (24)", "setting": "[4]", "result": 3.9, "unit": "°C"}]}, {"smiles": "Cc1cccc(-c2ccc(-c3cc4cnc(NCCCc5ccc(N)cc5)nc4n(CCCCN)c3=O)c(Cl)c2)n1", "note": "[compound 25, 8-(4-Aminobutyl)-2-((3-(4-aminophenyl)propyl)amino)-6-(2-chloro-4-(6-methylpyridin-2-yl)phenyl)pyrido[2,3-d]pyrimidin-7(8H)-one]", "values": [{"measurement": "ΔTm 25", "setting": "[1]", "result": 4.0, "unit": "°C"}, {"measurement": "ΔTm 25", "setting": "[2]", "result": -0.2, "unit": "°C"}, {"measurement": "ΔTm 25", "setting": "[3]", "result": -0.7, "unit": "°C"}, {"measurement": "ΔTm 25", "setting": "[4]", "result": 6.9, "unit": "°C"}]}, {"smiles": "Cc1cccc(-c2ccc(-c3cc4cnc(NCCCN5CCOCC5)nc4n(CCCCN)c3=O)c(Cl)c2)n1", "note": "[compound 26, MR26]", "values": [{"measurement": "ΔTm MR26 (26)", "setting": "[1]", "result": 2.1, "unit": "°C"}, {"measurement": "ΔTm MR26 (26)", "setting": "[2]", "result": -0.2, "unit": "°C"}, {"measurement": "ΔTm MR26 (26)", "setting": "[3]", "result": -0.4, "unit": "°C"}, {"measurement": "ΔTm MR26 (26)", "setting": "[4]", "result": 3.6, "unit": "°C"}]}]}
